Where “and” joins values, the source holds several entries; their conditions need not be identical. Equal entries are not always repeated.
Legend:
RL lymphoma = assay: Large established RL lymphoma xenografts; format: in vivo, mice
Description: (§1) The ability of CMC-544 made by the new procedure to inhibit growth of large established B-cell lymphoma xenografts using both the RAMOS and RL lymphoma models was also investigated. The tumors were allowed to grow and staged to 1.5 or 2 g of tumor mass after which CMC-544 or an isotype-matched negative control conjugate (CMA-676) were administered intraperitoneally at the dose of 160 μg/kg of conjugated calicheamicin keeping the original schedule of dosing on days 1, 5 and 9.
A similar experiment using CMC-544 was carried out in the RL lymphoma model. Intraperitoneal administration of CMC-544 at a dose of 160 μg/kg on a similar schedule as described before caused >90% regression of the pre-existing mass of RL lymphoma within 30 days. […] In a small number of studies not shown here, RL lymphomas that re-grew sporadically after the initial CMC-544-induced regression were retreated with CMC-544 again. […] Thus, the treatment with CMC-544 can be effective against both small and large masses of B-cell lymphomas with the potential for repeat therapy.

RL B lymphoma xenograft = assay: Subcutaneous RL B lymphoma xenograft, CMC-544 versus rituximab and CHOP; format: in vivo, Balb/c nude mice; conditions: IP, Q4Dx3, 160 μg/kg calicheamicin equivalents
Description: Female, athymic nude mice, 18-22 g, were given total body irradiation (400 rads). […] Three days after irradiation, mice were injected subcutaneously with 107 RL cells in […] ™ (Collaborative Biomedical Products, Belford, Mass., diluted 1:1 in RPMI medium) in the dorsal, right flank. […] The initial day of drug administration was considered day 1. Two additional doses were given on days 5 and 9 (treatment=q4Dx3). […] Tumors were measured at least once a week and calculated as tumor mass (g)=0.5 (tumor width/2) (tumor length). Group means SEM were calculated and compared to the vehicle-treated group for statistical significance using multiple T-tests. Group means were recorded up to 50 days or until either a mouse died (which disrupted the group mean) or the tumor grew too large (>3.5 g) and the mouse had to be euthanized. […] The number of tumor free mice at the end of each study for each treatment group was also recorded. […]
Individual components of the CHOP regimen were used at their respective maximum tolerated doses assessed in nude mice (data not reported) and were as follows: Cyclophosphamide (C) 40 mg/kg IP, doxorubicin (H) 3.3 mg/kg IP, vincristine (O) 0.5 mg/kg IP, and prednisone (P) 0.2 mg/kg PO. […]

RL NHL xenografts = RL NHL xenografts staged to 300-400 mg in nude mice; format: in vivo; conditions: for MEAN RELATIVE TUMOR GROWTH: tumor mass at Week 3/day 1
Description: Similar studies were carried out using the RL lymphoma model. […] CMC-544 in a dose-dependent manner caused tumors to regress over a 3-week time frame. The minimally effective dose of CMC-544 in the RL lymphoma model was established from statistical analyses of these studies to be 20 μg/kg based on calicheamicin content. There were no deaths in any of these three studies.
The observed anti-tumor efficacy was dose-dependent as expected and there was no difference in the efficacies of either of the two CMC-544 preparations. […] However, it should be emphasized that for each dose of conjugated calicheamicin, the quantity of antibody protein administered in the form of a conjugate was four times higher for CMC-544 made by the CMA-676 process versus that made by the CMC-544 process. Since the calicheamicin content of the targeted conjugate is primarily responsible for causing the anti-tumor effect, it is possible to deliver the required quantity of calicheamicin via the conjugate made by the new procedure using much smaller quantities of the targeting antibody. The increased loading of the conjugate made by the CMC-544 process is, in effect, due to the lack of significant amounts of the low conjugated fraction (LCF).

Ramos cells [1] = assay: Disseminated RAMOS B lymphoma in SCID mice, developing model; format: in vivo; conditions: Table 8; conjugates 160 μg/kg, rituximab 20 mg/kg ip Q4Dx3 from day 3
Description: (§2) Male SCID mice (CB17 SCID), 20-25 g, were injected with […] through the tail vein (0.2 ml). […] For the day 3 treatment schedule, mice were dosed on days 3, 7, and 11. For the day 9 treatment schedule, mice were dosed on days 9, 13 and 17. […] Mice were monitored daily for the presence of hind limb paralysis at which time they were killed. Seven to 10 mice per treatment group were used. The group average survival time (±SD), median, minimum, and maximum survival times were all calculated. The difference in survival distribution between groups was determined by using a nonparametric Log-rank test with significance reported at the 0.05 level. The survival curves were constructed using the Kaplan-Meier method.
The initial study examined the effect of two different dosing schedules on survival times of the SCID mice with the disseminated lymphoma. The first study looked at initiating drug dosing 3 days after the tumor cells were injected intravenously (developing model), while the second study delayed drug dosing until 9 days post tumor cell injection (established model).

CD22 on B cells = assay: Species specificity of CD22 recognition on B cells; format: binding, human, murine, rat, canine, porcine, cynomolgus and rhesus; conditions: data not shown
Description: (§3) Purified human polyclonal IgG1 and IgG4 were also used as negative controls.

RAMOS B-cell lymphoma = RAMOS B-cell lymphoma xenograft growth; format: in vivo
Description: In Vivo Cytotoxicity. CMC-544 made by the CMC-544 process was further evaluated in B-cell lymphoma xenografts. In these studies, two B-cell lymphoma tumors, RAMOS and RL, were used. RL lymphoma is a non-Burkitt's NHL-derived cell line whereas RAMOS was originally derived from a Burkitt's lymphoma.

[2] = tested on: CD22− CD33+ HL-60 leukemia cells; assay: Flow cytometry binding to HL-60 leukemia cells; conditions: data not shown
Description: as §3

Ramos cells [3] = assay: Disseminated RAMOS B lymphoma in SCID mice, established model; format: in vivo
Description: as §2
The initial study examined the effect of two different dosing schedules on survival times of the SCID mice with the disseminated lymphoma. The first study looked at initiating drug dosing 3 days after the tumor cells were injected intravenously (developing model), while the second study delayed drug dosing until 9 days post tumor cell injection (established model). […]

large RAMOS lymphoma = assay: Large established RAMOS lymphoma xenografts; format: in vivo, nude mice; conditions: days 1, 5 and 9
Description: as §1
The same schedule of dosing was shown earlier to cause long lasting regression of small staged tumors (see Table 6).

Ramos cells [4] = assay: Ramos cell viability, CMC-544 with and without rituximab, 96 hours; format: cell-based; conditions: CMC-544 alone, calicheamicin DMH
Description: After 96 hours, cell viability was measured by propidium iodide exclusion analyzed by flow cytometry. […] The statistical analysis was conducted using the PROBIT procedure in SAS version 8.2.

Raji = assay: In vitro growth inhibition of Raji B-cell lymphoma line; format: cell-based
Description: (§4) The effect of CMC-544 made by using CMA-676 and CMC-544 processes on the in vitro growth of CD22^+ B-Cell lymphoma cell lines, RL, Daudi, Raji and Ramos, were compared. An isotype-matched calicheamicin conjugate targeted at human CD33 (CMA-676) was used to reflect antigen-non-specific effects of the conjugate. […] CD22-mediated delivery of calicheamicin to the CD22^+ cells was at least 10 times more efficient in killing the target cells than the unconjugated drug itself. […] It is apparent from Table 4 that conjugate made by the CMC-544 conjugation process can generate equivalent cytotoxic effect at lower antibody concentrations than conjugate made by the CMA-676 conjugation process.

Ramos = assay: In vitro growth inhibition of Ramos B-cell lymphoma line; format: cell-based, human
Description: as §4

RL = assay: In vitro growth inhibition of RL B-cell lymphoma line; format: cell-based
Description: as §4

CD22mFc = assay: BIACORE biosensor binding analysis of CMC-544 and G5/44; conditions: Table 3
Chain of CD22mFc (P20273 20-240 limits assumed): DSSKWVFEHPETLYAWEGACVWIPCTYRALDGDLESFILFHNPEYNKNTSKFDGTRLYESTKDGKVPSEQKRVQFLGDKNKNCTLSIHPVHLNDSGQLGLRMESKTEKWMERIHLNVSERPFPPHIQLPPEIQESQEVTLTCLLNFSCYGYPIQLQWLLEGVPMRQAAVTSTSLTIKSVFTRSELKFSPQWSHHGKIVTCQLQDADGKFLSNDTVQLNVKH
Description: Biosensor analyses were carried out using a BIACORE™ 2000 (BIAcore AB, Uppsala, Sweden). CD22mFc was covalently immobilized on the N-hydroxysuccinimide-activated carboxymethyl dextran-coated biosensor chip (CM5) using a standard amine-coupling chemistry at a protein density of approximately 2000 resonance units. Samples of CMC-544 or G5/44 were diluted in the HBS buffer (10 mM HEPES, pH 7.4, containing 150 mM NaCl, 3 mM EDTA and 0.005% polysorbate 20 (v/v)) and injected in the concentration range of 1 to 100 nM over the CD22mFc-coated biosensor chip surface at a flow rate of 30 μl/min for 3 min to allow binding. After the binding phase, dissociation of the bound antibody was monitored by washing the chip with the HBS buffer over a 15 minute period. The antigenic surface was regenerated by washing the Biosensor chip with 15 μl of the regeneration buffer (10 mM NaOH and 200 mM NaCl) for 30 seconds, followed by a stabilization time of 2 minutes before the next cycle. Kinetic constants were calculated by nonlinear least square regression analysis using a 1:1 Langmuir binding curve fitting model and BIAevaluation program (version 3.0, BIAcore). The antigen binding of CMC-544 was evaluated by surface plasmon resonance analysis using CD22mFc covalently immobilized on a biosensor chip.

Daudi = assay: In vitro growth inhibition of Daudi B-cell lymphoma line; format: cell-based; conditions: Daudi #1
Description: as §4

[5] = Table 8, conjugates 160 μg/kg, rituximab 20 mg/kg ip Q4Dx3 from day 9
[6] = Table 9, high dose: CMC-544 160 μg/kg, rituximab 20 mg/kg, alone or combined
[7] = Table 10, high dose: CMC-544 160 μg/kg, rituximab 20 mg/kg, alone or combined
[8] = Table 10, low dose: CMC-544 40 μg/kg, rituximab 5 mg/kg, alone or combined
[9] = Table 10, medium dose: CMC-544 80 μg/kg, rituximab 10 mg/kg, alone or combined

CMC-544: G5/44-NAc-gamma-calicheamicin DMH AcBut conjugate; monomeric calicheamicin derivative/humanized anti-CD22 antibody (G5/44)
mice with re-growth of the tumors by day 45 (RL lymphoma; 160 μg/kg ip): 2
regression of the pre-existing mass of RL lymphoma (RL lymphoma; 160 μg/kg ip, within 30 days): > 90%
response of re-grown RL tumors to a second course (RL lymphoma; studies not shown): still responsive to the second course of the treatment with CMC-544 and regressed again
antitumor effect (RL B lymphoma xenograft): complete and lasted throughout the experimental period
tumor regression at higher doses (RL NHL xenografts; 60-320 μg/kg): almost complete regression of RL lymphoma
minimally effective dose in the RL lymphoma model (RL NHL xenografts; based on calicheamicin content, from statistical analyses of three studies): 0.02 mg/kg
% T/C (RL NHL xenografts; calicheamicin dose 20 μg/kg): 43%
MEAN RELATIVE TUMOR GROWTH (RL NHL xenografts; calicheamicin dose 20 μg/kg): 2.87
% T/C (RL NHL xenografts; calicheamicin dose 40 μg/kg): 20%
MEAN RELATIVE TUMOR GROWTH (RL NHL xenografts; calicheamicin dose 40 μg/kg): 1.34
% T/C (RL NHL xenografts; calicheamicin dose 60 μg/kg): 9%
MEAN RELATIVE TUMOR GROWTH (RL NHL xenografts; calicheamicin dose 60 μg/kg): 0.58
% T/C (RL NHL xenografts; calicheamicin dose 80 μg/kg): 8%
MEAN RELATIVE TUMOR GROWTH (RL NHL xenografts; calicheamicin dose 80 μg/kg): 0.54
% T/C (RL NHL xenografts; calicheamicin dose 160 μg/kg): 3%
MEAN RELATIVE TUMOR GROWTH (RL NHL xenografts; calicheamicin dose 160 μg/kg): 0.21
% T/C (RL NHL xenografts; calicheamicin dose 320 μg/kg): 1%
MEAN RELATIVE TUMOR GROWTH (RL NHL xenografts; calicheamicin dose 320 μg/kg): 0.10
deaths (RL NHL xenografts; three independent experiments, 20-320 μg/kg): no deaths
Average Survival Time (Ramos cells [1]): 41 days and 41.0 days
Maximum Survival Time (Ramos cells [1]): 60.0 days
Median Survival Time (Ramos cells [1]): 38.0 days
Minimum Survival Time (Ramos cells [1]): 32.0 days
recognition of CD22 on B cells of different species (CD22 on B cells): specifically recognizes CD22 on human B cells, but not on murine, rat, canine, porcine or primate (cynomolgus and rhesus) B cells
inhibition of growth of RAMOS B-cell lymphoma (RAMOS B-cell lymphoma; FIG. 18): efficacious in inhibiting, in a dose-dependent manner, the growth of RAMOS B-cell lymphoma
binding to HL-60 leukemia cells [2]: neither CMC-544 nor G5/44 demonstrated any binding
mice still surviving at 125 days (Ramos cells [3]; CMC-544 40 μg/kg): 90%
Average Survival Time (Ramos cells [3]; [5]): 83.5 days
Median Survival Time (Ramos cells [3]; [5]): 76.5 days
Minimum Survival Time (Ramos cells [3]; [5]): 34.0 days
Maximum Survival Time (Ramos cells [3]; [6]): >100.0 days
Median Survival Time (Ramos cells [3]; [6]): 34.5 days
Minimum Survival Time (Ramos cells [3]; [6]): 27.0 days
Average Survival Time (Ramos cells [3]; Table 9 initial combination study, high dose: CMC-544 160 μg/kg, rituximab 20 mg/kg, alone or combined): 58.5 days
Average Survival Time (Ramos cells [3]; [7]): 85 days and 85.22 days
Maximum Survival Time (Ramos cells [3]; [7]): 125.00 days
Median Survival Time (Ramos cells [3]; [7]): 82.00 days
Minimum Survival Time (Ramos cells [3]; [7]): 35.00 days
Average Survival Time (Ramos cells [3]; [8]): 118.90 days
Maximum Survival Time (Ramos cells [3]; [8]): 125.00 days
Median Survival Time (Ramos cells [3]; [8]): 125.00 days
Minimum Survival Time (Ramos cells [3]; [8]): 64.00 days
Average Survival Time (Ramos cells [3]; [9]): 118.22 days
Maximum Survival Time (Ramos cells [3]; [9]): 125.00 days
Median Survival Time (Ramos cells [3]; [9]): 125.00 days
Minimum Survival Time (Ramos cells [3]; [9]): 71.00 days
tumor-free mice by day 20 (large RAMOS lymphoma; 160 μg/kg conjugated calicheamicin ip, tumors staged to 1.5 or 2 g): 3 out of 4
re-growth of regressed lymphoma up to day 50 (large RAMOS lymphoma; 160 μg/kg ip): did not indicate any re-growth
median inhibitory concentration (IC50) (Ramos cells [4]): 0.029 ng/mL

G5/44: CDR-grafted humanized antibody directed against cell surface antigen CD22, IgG4 isotype
IC50 of antibody (Raji; Raji #1): >100 µg/mL
IC50 of antibody (Raji; Raji #2): >100 µg/mL
IC50 of antibody (Ramos; Ramos #1): >100 µg/mL
IC50 of antibody (Ramos; Ramos #2): >100 µg/mL
IC50 of antibody (RL; RL #1): >100 µg/mL
IC50 of antibody (RL; RL #2): >100 µg/mL
effect of unconjugated antibody on tumor growth (RAMOS B-cell lymphoma; 10 mg/kg intraperitoneal, subcutaneous xenografts): no effect on tumor growth
KA (CD22mFc): 7.9e+09 M⁻¹
Ka (CD22mFc): 220000 M⁻¹ s⁻¹
Kd (CD22mFc): 2.8e-05 s⁻¹
IC50 of antibody (Daudi): >100 µg/mL
binding to HL-60 leukemia cells [2]: neither CMC-544 nor G5/44 demonstrated any binding

Source: US9351986B2, “Calicheamicin derivative-carrier conjugates” (priority 2002, dated 2016)
